Experimental data: patent publication US20090304692A1, “TRIAZINE COMPOUNDS AS PI3 KINASE AND MTOR INHIBITORS” (Wyeth, priority 2008, published 2009)

target: PI3K-γ (Homo sapiens, UniProt P48736); assay: PI3K-gamma fluorescence polarization assay; details: not given
Sequence (P48736 whole entry, species assumed): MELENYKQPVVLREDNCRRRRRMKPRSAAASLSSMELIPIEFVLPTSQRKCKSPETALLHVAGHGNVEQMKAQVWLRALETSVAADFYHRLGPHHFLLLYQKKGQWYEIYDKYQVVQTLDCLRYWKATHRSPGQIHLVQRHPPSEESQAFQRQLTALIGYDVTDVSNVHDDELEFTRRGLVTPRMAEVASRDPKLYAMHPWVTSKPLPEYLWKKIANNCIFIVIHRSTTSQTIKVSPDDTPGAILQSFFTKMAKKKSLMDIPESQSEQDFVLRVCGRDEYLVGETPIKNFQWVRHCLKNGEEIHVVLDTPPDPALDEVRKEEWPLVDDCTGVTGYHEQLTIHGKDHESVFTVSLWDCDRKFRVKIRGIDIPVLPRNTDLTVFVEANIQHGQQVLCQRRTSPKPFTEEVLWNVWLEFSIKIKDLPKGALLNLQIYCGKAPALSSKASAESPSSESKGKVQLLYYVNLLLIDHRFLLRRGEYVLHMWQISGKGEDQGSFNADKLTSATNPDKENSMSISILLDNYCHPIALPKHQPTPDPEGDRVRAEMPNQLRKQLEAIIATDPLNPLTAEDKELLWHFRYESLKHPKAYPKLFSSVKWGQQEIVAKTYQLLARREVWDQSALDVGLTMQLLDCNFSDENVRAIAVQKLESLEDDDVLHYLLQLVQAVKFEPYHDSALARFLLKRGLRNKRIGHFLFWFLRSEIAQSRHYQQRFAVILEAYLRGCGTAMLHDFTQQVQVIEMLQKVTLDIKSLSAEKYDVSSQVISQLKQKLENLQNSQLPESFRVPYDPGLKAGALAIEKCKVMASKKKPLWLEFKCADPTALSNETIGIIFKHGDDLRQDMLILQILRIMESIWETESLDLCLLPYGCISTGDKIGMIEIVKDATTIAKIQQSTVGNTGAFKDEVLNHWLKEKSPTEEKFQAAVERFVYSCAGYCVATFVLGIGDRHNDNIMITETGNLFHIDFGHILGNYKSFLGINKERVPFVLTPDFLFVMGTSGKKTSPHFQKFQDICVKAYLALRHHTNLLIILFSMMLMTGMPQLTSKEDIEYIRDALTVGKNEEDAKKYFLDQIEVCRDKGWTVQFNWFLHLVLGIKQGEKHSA

Row | Compound | IC50
1 | CCN1CCN(c2ccc(NC(=O)Nc3ccc(-c4nc(N5C6CCC5COC6)nc(N5CCOC[C@H]5C)n4)cc3)cc2)CC1 [Example 440, 1-(4-(4-(3-oxa-8-azabicyclo[3.2.1]octan-8-yl)-6-((R)-3-methylmorpholino)-1,3,5-triazin-2-yl)phenyl)-3-(4-(4-ethylpiperazin-1-yl)phenyl)urea] | > 10 µM
2 | CC(C)N1CCN(c2ccc(NC(=O)Nc3ccc(-c4nc(N5C6CCC5COC6)nc(N5CCOC[C@H]5C)n4)cc3)cc2)CC1 [Example 441, 1-(4-(4-(3-oxa-8-azabicyclo[3.2.1]octan-8-yl)-6-((R)-3-methylmorpholino)-1,3,5-triazin-2-yl)phenyl)-3-(4-(4-isopropylpiperazin-1-yl)phenyl)urea] | > 10 µM

same assay, conditions: read-out: IC50 PI3Kγ

Row | Compound | IC50
3 | O=C(Nc1ccc(CO)cc1)Nc1ccc(-c2nc(N3C4CCC3COC4)nc(N3C4CCC3COC4)n2)cc1 [Example 287, 1-[4-(4,6-di-3-oxa-8-azabicyclo[3.2.1]oct-8-yl-1,3,5-triazin-2-yl)phenyl]-3-[4-(hydroxymethyl)phenyl]urea] | 3.3 µM
4 | CNCc1ccc(NC(=O)Nc2ccc(-c3nc(N4C5CCC4COC5)nc(N4C5CCC4COC5)n3)cc2)cc1 [Example 288, 1-[4-(4,6-di-3-oxa-8-azabicyclo[3.2.1]oct-8-yl-1,3,5-triazin-2-yl)phenyl]-3-{4-[(methylamino)methyl]phenyl}urea] | 2.78 µM
5 | CN(C)CCOc1ccc(NC(=O)Nc2ccc(-c3nc(N4C5CCC4COC5)nc(N4C5CCC4COC5)n3)cc2)cc1 [Example 289, 1-{4-[2-(dimethylamino)ethoxy]phenyl}-3-[4-(4,6-di-3-oxa-8-azabicyclo[3.2.1]oct-8-yl-1,3,5-triazin-2-yl)phenyl]urea] | 3.88 µM
6 | O=C(Nc1ccc(OCCO)cc1)Nc1ccc(-c2nc(N3C4CCC3COC4)nc(N3C4CCC3COC4)n2)cc1 [Example 372, 1-(4-(4,6-di(3-oxa-8-azabicyclo[3.2.1]octan-8-yl)-1,3,5-triazin-2-yl)phenyl)-3-(4-(2-hydroxyethoxy)phenyl)urea] | 7.25 µM
7 | CC(C)Nc1nc(-c2ccc(NC(=O)Nc3ccc(N4CCN(C)CC4)cc3)cc2)nc(N2C3CCC2COC3)n1 [Example 378, 1-(4-(4-(3-oxa-8-azabicyclo[3.2.1]octan-8-yl)-6-(isopropylamino)-1,3,5-triazin-2-yl)phenyl)-3-(4-(4-methylpiperazin-1-yl)phenyl)urea] | 5.38 µM
8 | CC(C)N(C)c1nc(-c2ccc(NC(=O)Nc3ccc(N4CCN(C)CC4)cc3)cc2)nc(N2C3CCC2COC3)n1 [Example 389, 1-(4-(4-(3-oxa-8-azabicyclo[3.2.1]octan-8-yl)-6-(isopropyl(methyl)amino)-1,3,5-triazin-2-yl)phenyl)-3-(4-(4-methylpiperazin-1-yl)phenyl)urea] | 5.66 µM
9 | CN1CCN(c2ccc(NC(=O)Nc3ccc(-c4nc(N5CCSCC5)nc(N5C6CCC5COC6)n4)cc3)cc2)CC1 [Example 394, 1-(4-(4-(3-oxa-8-azabicyclo[3.2.1]octan-8-yl)-6-thiomorpholino-1,3,5-triazin-2-yl)phenyl)-3-(4-(4-methylpiperazin-1-yl)phenyl)urea] | 3.23 µM
10 | CN1CCN(c2ccc(NC(=O)Nc3ccc(-c4nc(C5=CCOCC5)nc(N5C6CCC5COC6)n4)cc3)cc2)CC1 [Example 405, 1-(4-(4-(3-oxa-8-azabicyclo[3.2.1]octan-8-yl)-6-(3,6-dihydro-2H-pyran-4-yl)-1,3,5-triazin-2-yl)phenyl)-3-(4-(4-methylpiperazin-1-yl)phenyl)urea] | 0.193 µM
11 | CN1CCN(c2ccc(NC(=O)Nc3ccc(-c4nc(C5CCOCC5)nc(N5C6CCC5COC6)n4)cc3)cc2)CC1 [Example 407, 1-(4-(4-(3-oxa-8-azabicyclo[3.2.1]octan-8-yl)-6-(tetrahydro-2H-pyran-4-yl)-1,3,5-triazin-2-yl)phenyl)-3-(4-(4-methylpiperazin-1-yl)phenyl)urea] | 2.25 µM
12 | C[C@@H]1COCCN1c1nc(-c2ccc(NC(=O)Nc3ccc(OCCN(C)C)cc3)cc2)nc(N2C3CCC2COC3)n1 [Example 419, 1-(4-(4-(3-oxa-8-azabicyclo[3.2.1]octan-8-yl)-6-((R)-3-methylmorpholino)-1,3,5-triazin-2-yl)phenyl)-3-(4-(2-(dimethylamino)ethoxy)phenyl)urea] | 4.27 µM
13 | CCN1CCN(c2ccc(NC(=O)Nc3ccc(-c4nc(C5CCOCC5)nc(N5C6CCC5COC6)n4)cc3)cc2)CC1 [Example 434, 1-(4-(4-(3-oxa-8-azabicyclo[3.2.1]octan-8-yl)-6-(tetrahydro-2H-pyran-4-yl)-1,3,5-triazin-2-yl)phenyl)-3-(4-(4-ethylpiperazin-1-yl)phenyl)urea] | 4.74 µM
14 | CN(C)C1CCN(c2ccc(NC(=O)Nc3ccc(-c4nc(C5CCOCC5)nc(N5C6CCC5COC6)n4)cc3)cc2)CC1 [Example 437, 1-(4-(4-(3-oxa-8-azabicyclo[3.2.1]octan-8-yl)-6-(tetrahydro-2H-pyran-4-yl)-1,3,5-triazin-2-yl)phenyl)-3-(4-(4-(dimethylamino)piperidin-1-yl)phenyl)urea] | 1.61 µM
15 | CN1CCN(C(=O)c2ccc(NC(=O)Nc3ccc(-c4nc(C5CCOCC5)nc(N5C6CCC5COC6)n4)cc3)cc2)CC1 [Example 438, 1-(4-(4-(3-oxa-8-azabicyclo[3.2.1]octan-8-yl)-6-(tetrahydro-2H-pyran-4-yl)-1,3,5-triazin-2-yl)phenyl)-3-(4-(4-methylpiperazine-1-carbonyl)phenyl)urea] | 0.663 µM
16 | C[C@@H]1COCCN1c1nc(-c2ccc(NC(=O)Nc3ccc(C(=O)N4CCN(C)CC4)cc3)cc2)nc(N2C3CCC2COC3)n1 [Example 444, 1-(4-(4-(3-oxa-8-azabicyclo[3.2.1]octan-8-yl)-6-((R)-3-methylmorpholino)-1,3,5-triazin-2-yl)phenyl)-3-(4-(4-methylpiperazine-1-carbonyl)phenyl)urea] | 1.1 µM
17 | CC(C)N1CCN(C(=O)c2ccc(NC(=O)Nc3ccc(-c4nc(N5C6CCC5COC6)nc(N5CCOC[C@H]5C)n4)cc3)cc2)CC1 [Example 445, 1-(4-(4-(3-oxa-8-azabicyclo[3.2.1]octan-8-yl)-6-((R)-3-methylmorpholino)-1,3,5-triazin-2-yl)phenyl)-3-(4-(4-isopropylpiperazine-1-carbonyl)phenyl)urea] | 1 µM
18 | CC(C)N1CCN(C(=O)c2ccc(NC(=O)Nc3ccc(-c4nc(N5C6CCC5COC6)nc(N5CCOC[C@@H]5C)n4)cc3)cc2)CC1 [Example 830, 1-(4-{4-[(3S)-3-methylmorpholin-4-yl]-6-(3-oxa-8-azabicyclo[3.2.1]oct-8-yl)-1,3,5-triazin-2-yl}phenyl)-3-(4-{[4-(propan-2-yl)piperazin-1-yl]carbonyl}phenyl)urea] | 0.0705 µM
19 | C[C@H]1COCCN1c1nc(-c2ccc(NC(=O)Nc3ccc(C(=O)N4CCN(C)CC4)cc3)cc2)nc(N2C3CCC2COC3)n1 [Example 835, 1-(4-{4-[(3S)-3-methylmorpholin-4-yl]-6-(3-oxa-8-azabicyclo[3.2.1]oct-8-yl)-1,3,5-triazin-2-yl}phenyl)-3-{4-[(4-methylpiperazin-1-yl)carbonyl]phenyl}urea] | 0.066 µM
